Assays:
Assay type in all cases: functional
Details in all cases: read-out: IZ
[1] = system: Fusarium verticillioides; assay: Antifungal activity against Fusarium verticillioides Nirenberg (Sacc.) by agar diffusion method at 300 ug
[2] = system: Fusarium verticillioides; assay: Antifungal activity against Fusarium verticillioides Nirenberg (Sacc.) by agar diffusion method at 100 ug
[3] = system: Fusarium verticillioides; assay: Antifungal activity against Fusarium verticillioides Nirenberg (Sacc.) by agar diffusion method at 50 ug

Row | SMILES | zone of inhibition at 300 µg/disc [1] | zone of inhibition at 100 µg/disc [2] | zone of inhibition at 50 µg/disc [3]
1 | CCCCCCCCCCC(O)=C1C(=O)C=CC1=O [CHRYSOTRIONE B] | 18 mm | 15 mm | 3 mm
2 | C=CCCCCCCCCC(O)=C1C(=O)C=CC1=O [CHRYSOTRIONE A] | 35 mm | 10 mm | 3 mm
3 | Cc1cc(C2CCCCC2)n(O)c(=O)c1 [CICLOPIROX] | – | – | 25 mm
